Measured values: patent US11655258B2, “Heterocycle derivatives as pesticides” (BAYER AKTIENGESELLSCHAFT, priority 2017, dated 2023)

Assays:
[1] = tested on: Phaedon cochleariae; assay: Phaedon cochleariae spray test; format: in vivo; details: 168 h, after 7 days, read-out: efficacy; for pest or weed control at 20 g/ha: application rate 20 g/ha; for pest or weed control at 100 g/ha: application rate 100 g/ha
Protocol: Phaedon cochleariae—Spray Test • Solvent: 78.0 parts by weight of acetone • 1.5 parts by weight of dimethylformamide • Emulsifier: alkylaryl polyglycol ether
(§1) To produce a suitable active compound preparation, 1 part by weight of active compound is dissolved using the stated parts by weight of solvent and made up with water containing an emulsifier concentration of 1000 ppm until the desired concentration is attained. To produce further test concentrations, the formulation is diluted with emulsifier-containing water.
Discs of Chinese cabbage leaves (Brassica pekinensis) are sprayed with an active compound formulation of the desired concentration and, after drying, populated with larvae of the mustard beetle (Phaedon cochleariae).
After 7 days, the efficacy in % is determined. 100% means that all the beetle larvae have been killed; 0% means that no beetle larvae have been killed.

[2] = tested on: Musca domestica; assay: Musca domestica test; format: in vivo; details: application rate 100 ppm, adult houseflies, after 2 days
Protocol: Musca domestica Test • Solvent: dimethyl sulfoxide
(§2) To produce a suitable active compound formulation, 10 mg of active compound are mixed with 0.5 ml of dimethyl sulfoxide, and the concentrate is diluted with water to the desired concentration.
Vessels containing a sponge treated with sugar solution and the desired concentration of active compound formulation are populated with 10 adult houseflies (Musca domestica).
After 2 days, the kill in % is determined. 100% means that all of the flies have been killed; 0% means that none of the flies have been killed.

[3] = tested on: Myzus persicae; assay: Myzus persicae oral test; format: in vivo; details: 120 h, application rate 4 ppm, after 5 days, read-out: efficacy
Protocol: Myzus persicae Oral Test • Solvent: 100 parts by weight of acetone
To produce a suitable preparation of active compound, 1 part by weight of active compound is dissolved using the specified parts by weight of solvent and made up with water until the desired concentration is attained.
50 μl of the active compound preparation are transferred into microtitre plates and made up to a final volume of 200 μl with 150 μl of IPL41 insect medium (33%+15% sugar). Subsequently, the plates are sealed with parafilm, which a mixed population of green peach aphids (Myzus persicae) within a second microtitre plate is able to puncture and imbibe the solution through.
(§3) After 5 days, the efficacy in % is determined. 100% means that all the aphids have been killed; 0% means that no aphids have been killed.

[4] = tested on: Lucilia cuprina; assay: Lucilia cuprina test; format: in vivo; details: application rate 100 ppm, L1 larvae, after 2 days
Protocol: Lucilia cuprina Test • Solvent: dimethyl sulfoxide
as §2
About 20 L1 larvae of the Australian sheep blowfly (Lucilia cuprina) are transferred into a test vessel containing minced horsemeat and the active compound formulation of the desired concentration.
After 2 days, the kill in % is determined. 100% means that all the larvae have been killed; 0% means that no larvae have been killed.

[5] = tested on: Ctenocephalides felis; assay: Ctenocephalides felis in vitro contact test with adult cat fleas; format: in vivo; details: application rate 5 μg/cm^2 (=500 g of ai/ha), after 48 h
Protocol: Ctenocephalides felis—In Vitro Contact Tests with Adult Cat Fleas
(§4) For the coating of the test tubes, 9 mg of active compound are first dissolved in 1 ml of acetone p.a. and then diluted to the desired concentration with acetone p.a. 250 μl of the solution are distributed homogeneously on the inner walls and the base of a 25 ml glass tube by turning and rocking on an orbital shaker (rocking rotation at 30 rpm for 2 h). With 900 ppm of active compound solution and internal surface area 44.7 cm^2, given homogeneous distribution, an area-based dose of 5 μg/cm^2 is achieved.
After the solvent has evaporated off, the tubes are populated with 5-10 adult cat fleas (Ctenocephalides felis), sealed with a perforated plastic lid and incubated in a horizontal position at room temperature and ambient humidity. After 48 h, efficacy is determined. To this end, the tubes are stood upright and the fleas are knocked to the base of the tube. Fleas which remain motionless at the base or move in an uncoordinated manner are considered to be dead or moribund.
100% efficacy means that all the fleas were dead or moribund. 0% efficacy means that no fleas were harmed.

[6] = tested on: Spodoptera frugiperda; assay: Spodoptera frugiperda spray test; format: in vivo; details: application rate 100 g/ha, after 7 days
Protocol: Spodoptera frugiperda—Spray Test • Solvent: 78.0 parts by weight of acetone • 1.5 parts by weight of dimethylformamide • Emulsifier: alkylaryl polyglycol ether
as §1
Leaf discs of maize (Zea mays) are sprayed with an active compound formulation of the desired concentration and, after drying, populated with caterpillars of the fall armyworm (Spodoptera frugiperda).
After 7 days, the efficacy in % is determined. 100% means that all the caterpillars have been killed; 0% means that no caterpillar has been killed.

[7] = tested on: Rhipicephalus sanguineus; assay: Rhipicephalus sanguineus in vitro contact test with adult brown dog ticks; format: in vivo; details: application rate 1 μg/cm^2 (=100 g of ai/ha), after 48 h
Protocol: Rhipicephalus sanguineus—In Vitro Contact Tests with Adult Brown Doe Ticks
as §4
After the solvent has evaporated off, the tubes are populated with 5-10 adult dog ticks (Rhipicephalus sanguineus), sealed with a perforated plastic lid and incubated in a horizontal position in the dark at room temperature and ambient humidity. After 48 h, efficacy is determined. To this end, the ticks are knocked to the base of the tube and incubated on a hotplate at 45-50° C. for not more than 5 min. Ticks which remain motionless on the base or move in such an uncoordinated manner that they are unable to deliberately avoid the heat by climbing upwards are considered to be dead or moribund.
An efficacy of 100% means that all the ticks were dead or moribund. 0% efficacy means that none of the ticks were harmed.

[8] = tested on: Ctenocephalides felis; assay: Ctenocephalides felis oral test; format: in vivo; details: application rate 100 ppm in citrated cattle blood, after 2 days
Protocol: Ctenocephalides felis—Oral Test • Solvent: dimethyl sulfoxide
To produce a suitable active compound formulation, 10 mg of active compound are mixed with 0.5 ml of dimethyl sulfoxide. Dilution with citrated cattle blood gives the desired concentration.
About 20 unfed adult cat fleas (Ctenocephalides felis) are placed into a chamber which is closed at the top and bottom with gauze. A metal cylinder whose bottom end is closed with parafilm is placed onto the chamber. The cylinder contains the blood/active compound formulation, which can be imbibed by the fleas through the parafilm membrane.
After 2 days, the kill in % is determined. 100% means that all of the fleas have been killed; 0% means that none of the fleas have been killed.

[9] = tested on: Myzus persicae; assay: Myzus persicae spray test (Chinese cabbage leaf discs); format: in vivo; details: foliar, 120 h, application rate 100 g/ha, after 5 days, read-out: efficacy
Protocol: Myzus persicae Spray Test • Solvent: 78 parts by weight of acetone • 1.5 parts by weight of dimethylformamide • Emulsifier: alkylaryl polyglycol ether
as §1
Discs of Chinese cabbage leaves (Brassica pekinensis) infested by all stages of the green peach aphid (Myzus persicae) are sprayed with an active compound formulation of the desired concentration.
as §3

[10] = tested on: Boophilus microplus; assay: Boophilus microplus injection test; format: in vivo; details: application rate 20 μg/animal, laying of fertile eggs after 7 days
Protocol: Boophilus microplus Injection Test • Solvent: dimethyl sulfoxide
To produce a suitable active compound formulation, 10 mg of active compound are mixed with 0.5 ml of solvent and the concentrate is diluted to the desired concentration with solvent.
1 μl of the active compound solution is injected into the abdomen of 5 engorged adult female cattle ticks (Boophilus microplus). The animals are transferred into dishes and kept in a climate-controlled room.
Efficacy is assessed after 7 days by laying of fertile eggs. Eggs which are not visibly fertile are stored in a climate-controlled cabinet until the larvae hatch after about 42 days. An efficacy of 100% means that none of the ticks has laid any fertile eggs; 0% means that all the eggs are fertile.

[11] = tested on: Nilaparvata lugens; assay: Nilaparvata lugens spray test (NILALU); format: in vivo; details: 96 h, 500 g/ha, 4 dat, read-out: % efficacy
Protocol: Nilaparvata lugens—Spray Test (NILALU) • Solvent: 52.5 parts by weight of acetone • 7 parts by weight of dimethylformamide • Emulsifier: alkylaryl polyglycol ether
as §1, with “water. If the addition of ammonium salts or/and penetrants is required, these are each added in a concentration of 1000 ppm to the formulation solution.” for “water.”
Rice plants (Oryza sativa) are sprayed with an active ingredient formulation of the desired concentration and then populated with larvae of the brown planthopper (Nilaparvata lugens).
After the desired period of time, the efficacy in % is determined. 100% means that all of the planthoppers have been killed; 0% means that none of the planthoppers have been killed.

[12] = tested on: Myzus persicae; assay: Myzus persicae drench test (MYZUPE D), savoy cabbage; format: in vivo; details: soil, 240 h, 10 dat, read-out: % efficacy
Protocol: Myzus persicae—Drench Test (MYZUPE D) • Solvent: 7 parts by weight of dimethylformamide • Emulsifier: 2 parts by weight of alkylaryl polyglycol ether
To produce a suitable active compound preparation, 1 part by weight of active compound is mixed with the specified amounts of solvent and emulsifier, and the concentrate is diluted with water to the desired concentration, it being necessary to include the volume of soil which is drenched in the calculation. It should be ensured that a concentration of 40 ppm of emulsifier in the soil is not exceeded. To produce further test concentrations, water is used for dilution.
Savoy cabbage (Brassica oleracea) in pots with soil and infested by all stages of the green peach aphid (Myzus persicae) is watered with an active compound preparation of the desired concentration.
After the desired period of time, the efficacy in % is determined. 100% means that all the aphids have been killed; 0% means that no aphids have been killed.

[13] = tested on: Aphis gossypii; assay: Aphis gossypii spray test (APHIGO); format: in vivo; details: 144 h, 6 dat, read-out: % efficacy
Protocol: Aphis gossypii Spray Test (APHIGO) • Solvent: 14 parts by weight of dimethylformamide • Emulsifier: alkylaryl polyglycol ether
as §1, with “water. If the addition of ammonium salts or/and penetrants is required, these are each added in a concentration of 1000 ppm to the formulation solution.” for “water.”
Cotton plants (Gossypium hirsutum) heavily infested by the cotton aphid (Aphis gossypii) are sprayed with an active compound formulation of the desired concentration.
After the desired time, the kill in % is determined. 100% means that all the aphids have been killed; 0% means that no aphids have been killed.

[14] = log P by HPLC on reversed-phase column (EEC Directive 79/831 Annex V.A8); format: physicochemical; details: reversed-phase HPLC column (C18); pH 7.8, 0.001 molar aqueous ammonium bicarbonate/acetonitrile, 55° C.; read-out: log P (neutral)
Protocol: The log P values are measured according to EEC Directive 79/831 Annex V.A8 by HPLC (high-performance liquid chromatography) on a reversed-phase column (C 18). Temperature: 55° C.
The LC-MS determination in the neutral range is effected at pH 7.8 with 0.001 molar aqueous ammonium bicarbonate solution and acetonitrile as mobile phases; linear gradient from 10% acetonitrile to 95% acetonitrile. Called log P (neutral) in the table.
Calibration is carried out using unbranched alkan-2-ones (having 3 to 16 carbon atoms) with known Log P values (Log P values determined on the basis of the retention times by linear interpolation between two successive alkanones).

[15] = tested on: Myzus persicae; assay: Myzus persicae spray test (MYZUPE S), bell pepper plants; format: in vivo; details: 144 h, 6 dat, read-out: % efficacy
Protocol: Myzus persicae—Spray Test (MYZUPE S) • Solvent: 14 parts by weight of dimethylformamide • Emulsifier: alkylaryl polyglycol ether
as §1, with “water. If the addition of ammonium salts or/and penetrants is required, these are each added in a concentration of 1000 ppm to the formulation solution.” for “water.”
Bell pepper plants (Capsicum annuum) severely infested with the green peach aphid (Myzus persicae) are treated by spraying with the active compound formulation in the desired concentration.
After the desired time, the kill in % is determined. 100% means that all the animals have been killed; 0% means that no animals have been killed.

Structure (SMILES)	pest or weed control at 20 g/ha [1]	pest or weed control at 100 g/ha [1]	efficacy (kill) [2]	pest or weed control at 4 ppm [3]	efficacy (kill) [4]	efficacy [5]	efficacy [6]	efficacy [7]	efficacy (kill) [8]	pest or weed control at 100 g/ha [9]	efficacy [10]	Emax at 500 g/ha [11]	Emax at 20 ppm [12]	Emax at 20 ppm [13]	chromatographic logP [14]	Emax at 20 ppm [15]
CCS(=O)(=O)c1c(-c2nc3ccc(C(F)(F)F)cn3n2)nc2cc(I)ccn12 [Example I-12]	100%	100%	90%	90%	100%	100%	100%									
CCS(=O)(=O)c1cc2ccccc2nc1-c1nc2cc(C(F)(F)F)ncn2n1 [Example I-05]	100%	100%		100%	100%	100%	100%	80%	95%	90%						
CCS(=O)(=O)c1c(-c2nc3ccc(C(F)(F)F)cn3n2)nc2cc(NC(=O)C3CC3)ccn12 [Example I-09]				100%					95%		100%					
CCS(=O)(=O)c1c(-c2nc3ccc(C(F)(F)F)cn3n2)nc2cc(C(F)(F)F)ccn12 [Example I-01]	100%	100%		100%	100%	100%	100%		100%			80%	90%	99%	2.41	95%
